These results are taken from ChEMBL document CHEMBL4308897, “Antileishmanial activity and cytotoxicity of ent-beyerene diterpenoids” (Bioorg Med Chem, 2019).

Activity calls are given as the source filed them. The calls are words filed in the database; no cut-off is given here. Bounds are passed on as bounds.

Broadly, the EC50 is the concentration that produces a half-maximal response.

Data set [1] has as its system Leishmania braziliensis. The experiment in a line: Antileishmanial activity against Leishmania (Viannia) braziliensis HMOM/COL/88/UA301-EGFP infected in golden hamster assessed as clinical improvement at 0.81% administered topically as cream formulation for 20 days measured 3 months post last dose relative to control. Format: functional.
Data set [2] can be described thus: Selectivity index, ratio of LC50 for human U937 cells to EC50 for Leishmania (Viannia) braziliensis HMOM/COL/88/UA301-EGFP intracellular amastigotes infected in human U937 cells. Format: toxicity, cell-based. The note with it: read-out: Selectivity Index.
Data set [3] has as its system Leishmania braziliensis. The experiment in a line: Antileishmanial activity against Leishmania (Viannia) braziliensis HMOM/COL/88/UA301-EGFP infected in golden hamster assessed as relapse at 0.81% administered topically as cream formulation for 20 days measured 3 months post last dose relative to control. Format: functional.
Data set [4] concerns Leishmania braziliensis. The experiment in a line: Antileishmanial activity against Leishmania (Viannia) braziliensis HMOM/COL/88/UA301-EGFP infected in golden hamster assessed as cure rate at 0.81% administered topically as cream formulation for 20 days measured 3 months post last dose relative to control. Format: functional.
Data set [5] deals with Syrian golden hamster. The experiment in a line: Antiinflammatory activity in golden hamster infected with Leishmania (Viannia) braziliensis HMOM/COL/88/UA301-EGFP assessed as migration of lymphocytes in skin at 0.81% to 1.96% administered topically as cream formulation for 20 days and measured 3 months post last treatment by histopathological analysis. Format: functional, organism-based. The note with it: Mesocricetus auratus.

A short description of data set [6]: Toxicity in golden hamster infected with Leishmania (Viannia) braziliensis HMOM/COL/88/UA301-EGFP assessed as effect on serum BUN level at 0.81% to 1.96% administered topically as cream formulation for 20 days and measured day 8 post last treatment. Set-up: species or system Mesocricetus auratus. The note with it: in vivo, topical_or_ocular, 480 h.
Data set [7] relates to Syrian golden hamster. The experiment in a line: Antiinflammatory activity in golden hamster infected with Leishmania (Viannia) braziliensis HMOM/COL/88/UA301-EGFP assessed as migration of plasmocytes in skin at 0.81% to 1.96% administered topically as cream formulation for 20 days and measured 3 months post last treatment by histopathological analysis. The note with it: Mesocricetus auratus. Format: functional, organism-based.

In data set [8] the test system is Leishmania braziliensis. The data set can be described thus: Antileishmanial activity against Leishmania (Viannia) braziliensis HMOM/COL/88/UA301-EGFP infected in golden hamster assessed as clinical failure at 0.81% administered topically as cream formulation for 20 days measured 3 months post last dose relative to control. Format: functional.
Data set [9] in a line: Hepatotoxicity in golden hamster infected with Leishmania (Viannia) braziliensis HMOM/COL/88/UA301-EGFP assessed as hemosiderin pigmentation at 0.81% to 1.96% administered topically as cream formulation for 20 days measured 90 days post last dose by histopathological analysis. Format: toxicity, Mesocricetus auratus. The note with it: in vivo, topical_or_ocular, 2160 h.
Data set [10] can be described thus: Hepatotoxicity in golden hamster infected with Leishmania (Viannia) braziliensis HMOM/COL/88/UA301-EGFP assessed as infiltration of macrophages at 0.81% to 1.96% administered topically as cream formulation for 20 days measured 90 days post last dose by histopathological analysis. The note with it: in vivo, topical_or_ocular, 2160 h. Format: toxicity, Mesocricetus auratus.

The test system of data set [11] is Syrian golden hamster. The experiment in a line: Antiinflammatory activity in golden hamster infected with Leishmania (Viannia) braziliensis HMOM/COL/88/UA301-EGFP assessed as migration of macrophages in skin at 0.81% to 1.96% administered topically as cream formulation for 20 days and measured 3 months post last treatment by histopathological analysis. Format: functional, organism-based. The following applies: Mesocricetus auratus.

In data set [12] the test system is Leishmania braziliensis. The data set can be described thus: Antileishmanial activity against Leishmania (Viannia) braziliensis HMOM/COL/88/UA301-EGFP infected in golden hamster assessed as relapse at 1.96% administered topically as cream formulation for 20 days measured 3 months post last dose relative to control. Format: functional.
The nature of data set [13]: Cytotoxicity against human U937 cells after 72 hrs by MTT assay. Format: cell-based, U-937. The following applies: read-out: LC50. In general terms: Formazan colour is commonly taken as a measure of viable cells.
A short description of data set [14]: Hepatotoxicity in golden hamster infected with Leishmania (Viannia) braziliensis HMOM/COL/88/UA301-EGFP assessed as infiltration of lymphocytes at 0.81% to 1.96% administered topically as cream formulation for 20 days measured 90 days post last dose by histopathological analysis. Format: toxicity, Mesocricetus auratus. The following applies: in vivo, topical_or_ocular, 2160 h.

The subject of data set [15] is Leishmania braziliensis. The data set can be described thus: Antileishmanial activity against Leishmania (Viannia) braziliensis HMOM/COL/88/UA301-EGFP infected in golden hamster assessed as clinical improvement at 1.96% administered topically as cream formulation for 20 days measured 3 months post last dose relative to control. Format: functional.
In data set [16] the test system is Leishmania braziliensis. The data set can be described thus: Antileishmanial activity against Leishmania (Viannia) braziliensis HMOM/COL/88/UA301-EGFP intracellular amastigotes infected in human U937 cells after 72 hrs by flow cytometric analysis. Format: functional, organism-based. The following applies: HMOM/COL/88/UA301, U-937, 72 h. In general terms: In flow cytometry, cells or beads pass a laser one at a time.

A short description of data set [17]: Renal toxicity in golden hamster infected with Leishmania (Viannia) braziliensis HMOM/COL/88/UA301-EGFP assessed as vacuolar degeneration at 0.81% to 1.96% administered topically as cream formulation for 20 days measured 90 days post last dose by histopathological analysis. Further details: species or system Mesocricetus auratus. The note with it: in vivo, topical_or_ocular, 2160 h.

A short description of data set [18]: Hepatotoxicity in golden hamster infected with Leishmania (Viannia) braziliensis HMOM/COL/88/UA301-EGFP assessed as congestion at 0.81% to 1.96% administered topically as cream formulation for 20 days measured 90 days post last dose by histopathological analysis. The following applies: in vivo, topical_or_ocular, 2160 h. Format: toxicity, Mesocricetus auratus.

A short description of data set [19]: Toxicity in golden hamster infected with Leishmania (Viannia) braziliensis HMOM/COL/88/UA301-EGFP assessed as effect on serum creatinine level at 0.81% to 1.96% administered topically as cream formulation for 20 days and measured day 8 post last treatment. The following applies: in vivo, topical_or_ocular, 480 h. Further details: species or system Mesocricetus auratus.

Data set [20] has as its system Leishmania braziliensis. The data set can be described thus: Antileishmanial activity against Leishmania (Viannia) braziliensis HMOM/COL/88/UA301-EGFP infected in golden hamster assessed as parasitic load per milligram of tissue at 0.81 to 1.96% administered topically as cream formulation for 20 days measured 3 months post last dose by RT-PCR analysis. Format: functional.

A short description of data set [21]: Toxicity in golden hamster infected with Leishmania (Viannia) braziliensis HMOM/COL/88/UA301-EGFP assessed as change in body weight at 0.81% to 1.96% administered topically as cream formulation for 20 days measured up to 90 days post last dose. Set-up: species or system Mesocricetus auratus. The note with it: in vivo, topical_or_ocular.
Data set [22] deals with Leishmania braziliensis. The data set can be described thus: Antileishmanial activity against Leishmania (Viannia) braziliensis HMOM/COL/88/UA301-EGFP infected in golden hamster assessed as clinical failure at 1.96% administered topically as cream formulation for 20 days measured 3 months post last dose relative to control. Format: functional.
A short description of data set [23]: Toxicity in golden hamster infected with Leishmania (Viannia) braziliensis HMOM/COL/88/UA301-EGFP assessed as effect on serum alanine aminotransferase level at 0.81% to 1.96% administered topically as cream formulation for 20 days and measured day 8 post last treatment. Set-up: species or system Mesocricetus auratus. The note with it: in vivo, topical_or_ocular, 480 h.

The subject of data set [24] is Leishmania braziliensis. The experiment in a line: Antileishmanial activity against Leishmania (Viannia) braziliensis HMOM/COL/88/UA301-EGFP infected in golden hamster assessed as cure rate at 1.96% administered topically as cream formulation for 20 days measured 3 months post last dose relative to control. Format: functional.
Data set [25] is described as follows: Hepatotoxicity in golden hamster infected with Leishmania (Viannia) braziliensis HMOM/COL/88/UA301-EGFP assessed as vacuolar degeneration at 0.81% to 1.96% administered topically as cream formulation for 20 days measured 90 days post last dose by histopathological analysis. Format: toxicity, Mesocricetus auratus. The following applies: in vivo, topical_or_ocular, 2160 h.

The test system of data set [26] is Syrian golden hamster. The data set can be described thus: Antiinflammatory activity in golden hamster infected with Leishmania (Viannia) braziliensis HMOM/COL/88/UA301-EGFP assessed as re-epithelialization in skin at 200 ug administered intralesionally twice per week for 4 weeks measured 3 months post last dose by histopathological analysis. Format: functional, organism-based. The note with it: Mesocricetus auratus.

Data set [27] concerns Syrian golden hamster. The data set can be described thus: Antiinflammatory activity in golden hamster infected with Leishmania (Viannia) braziliensis HMOM/COL/88/UA301-EGFP assessed as migration of lymphocytes in skin at 200 ug administered intralesionally twice per week for 4 weeks measured 3 months post last dose by histopathological analysis. Format: functional, organism-based. The note with it: Mesocricetus auratus.

In data set [28] the test system is Leishmania braziliensis. The experiment in a line: Antileishmanial activity against Leishmania (Viannia) braziliensis HMOM/COL/88/UA301-EGFP infected in golden hamster assessed as clinical failure at 200 ug administered intralesionally twice per week for 4 weeks measured 3 months post last dose relative to control. Format: functional, organism-based.
Data set [29] deals with Leishmania braziliensis. The data set can be described thus: Antileishmanial activity against Leishmania (Viannia) braziliensis HMOM/COL/88/UA301-EGFP infected in golden hamster assessed as relapse at 200 ug administered intralesionally twice per week for 4 weeks measured 3 months post last dose relative to control. Format: functional, organism-based.
Data set [30] has as its system Syrian golden hamster. The experiment in a line: Antiinflammatory activity in golden hamster infected with Leishmania (Viannia) braziliensis HMOM/COL/88/UA301-EGFP assessed as migration of plasmocytes in skin at 200 ug administered intralesionally twice per week for 4 weeks measured 3 months post last dose by histopathological analysis. Format: functional, organism-based. The note with it: Mesocricetus auratus.

Data set [31] has as its system Leishmania braziliensis. The experiment in a line: Antileishmanial activity against Leishmania (Viannia) braziliensis HMOM/COL/88/UA301-EGFP infected in golden hamster assessed as cure rate at 200 ug administered intralesionally twice per week for 4 weeks measured 3 months post last dose relative to control. Format: functional, organism-based.
For data set [32], the system named is Syrian golden hamster. The experiment in a line: Antiinflammatory activity in golden hamster infected with Leishmania (Viannia) braziliensis HMOM/COL/88/UA301-EGFP assessed as migration of macrophages in skin at 200 ug administered intralesionally twice per week for 4 weeks measured 3 months post last dose by histopathological analysis. The note with it: Mesocricetus auratus. Format: functional, organism-based.

Data set [33] concerns Leishmania braziliensis. The data set can be described thus: Antileishmanial activity against Leishmania (Viannia) braziliensis HMOM/COL/88/UA301-EGFP infected in golden hamster assessed as clinical improvement at 200 ug administered intralesionally twice per week for 4 weeks measured 3 months post last dose relative to control. Format: functional, organism-based.

In the case of `C[C@]12C=C[C@@]3(CC[C@@H]4[C@](C)(CO)CCC[C@@]4(C)[C@@H]3CC1)C2`, the Activity is 50% in data set [1]; 0% in [3]; 50% in data set [4]; “Non-Toxic” in data set [6]; 0% in data set [8]; “Toxic” in [9]. Further, the Activity entry in data set [10] is on record as “Toxic”; in [12] it was 16.7%; in data set [14], “Toxic”; in data set [15], 50%; in data set [17] it was “Toxic”; in data set [18] it was “Toxic”. Also, the Activity entry is given as “Non-Toxic” in data set [19]; under 500 in data set [20]; “Non-Toxic” in data set [21]; 16.7% in [22]; “Non-Toxic” in [23]; 16.7% in [24]. For the same compound, in data set [25], the Activity result is “Toxic”. Besides, the selectivity ratio in data set [2] was 5.1. In addition, the result in data set [5], in data set [7] and in data set [11] was Active. For the same compound, in data set [13], the CC50 at 72 h is 114 µM. For the same compound, in [16], a half-maximal response (EC50) required 16 µM.
Turning to MEGLUMINE ANTIMONATE, the outcome in data set [26], in [27], in data set [30] and in [32] was Active. Moreover, the Activity in data set [28] came out at 0%; in [29], 16.7%; in [31], 66.7%; in data set [33], 16.7%.
